Experiments:
[1] = target: T1, adenosine A3 receptor (A3R) (Homo sapiens, UniProt P0DMS8); assay: Inhibition of the adenosine A3 receptor cAMP signaling pathway in CHO-K1/A3R cells (HTRF); type: cell-based; details: for IC50: CHO-K1/A3R cells, cAMP, forskolin 10 μM, 2Cl-IB-MECA 5 nM; for IC50 ratio (A3R/A2aR): selectivity A3R over A2aR
T1 construct: expressed in transfected cells; host or cells: CHO-K1
T1 sequence (P0DMS8 1-318): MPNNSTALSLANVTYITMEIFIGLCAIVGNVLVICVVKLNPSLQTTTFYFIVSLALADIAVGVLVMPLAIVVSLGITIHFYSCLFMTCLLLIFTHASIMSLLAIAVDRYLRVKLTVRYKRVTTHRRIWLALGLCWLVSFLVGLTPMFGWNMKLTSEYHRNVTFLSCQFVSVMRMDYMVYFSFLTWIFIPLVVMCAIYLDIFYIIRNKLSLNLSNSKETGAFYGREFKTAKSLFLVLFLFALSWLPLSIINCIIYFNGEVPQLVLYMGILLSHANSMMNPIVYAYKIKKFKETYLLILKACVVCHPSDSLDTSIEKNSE
From the text: (§1) Determination of the inhibition activity of the compounds of the present invention on the adenosine A2a receptor (A2aR) cAMP signaling pathway, the adenosine A2b receptor (A2bR) cAMP signaling pathway, the adenosine A1 receptor (A1R) cAMP signaling pathway and the adenosine A3 receptor (A3R) cAMP signaling pathway.
(§2) The inhibition activity of the compounds of the present invention on the adenosine A2a receptor (A2aR) cAMP signaling pathway, the adenosine A2b receptor cAMP signaling pathway, the adenosine A1 receptor cAMP signaling pathway and the adenosine A3 receptor cAMP signaling pathway was determined by the following method. The experimental method is briefly described as follows:
2.4 Adenosine A3 Receptor
CHO-K1/A3R cells were cultured in DMEM/F12 medium containing 10% fetal bovine serum and 10 μg/ml puromycin. The cells were digested with the cell separation buffer during the experiment. The cells were resuspended in the balanced salt buffer containing 20 mM HEPES and 0.1% bovine serum albumin and counted, and the cell density was adjusted to 5×10^5 cells/ml. In the 384-well plate, each well was added with 12.5 μl of cell suspension, and 6.25 μl of test compound (4× concentration) formulated with the balanced salt buffer containing 20 mM HEPES, 0.1% bovine serum albumin, 54 μM rolipram and 2.7 U/ml adenosine deaminase, and the plate was incubated at room temperature for 30 minutes. Each well was then added with 6.25 μl of forskolin and 2Cl-IB-MECA (4× concentration) formulated with the balanced salt buffer containing 20 mM HEPES, 0.1% bovine serum albumin, 54 μM rolipram and 2.7 U/ml adenosine deaminase, and the plate was incubated at room temperature for 30 minutes. The final concentrations of the compounds were: 100000, 10000, 1000, 100, 10, 1, 0.1 and 0 nM. The final concentrations of forskolin was 10 μM. The final concentration of 2Cl-IB-MECA was 5 nM. Intracellular cAMP concentration was detected with the cAMP dynamic 2 kit. cAMP-d2 and Anti-cAMP-Eu-Cryptate were diluted respectively with the cAMP lysis buffer at a ratio of 1:4. Each well was added with 12.5 μl of diluted cAMP-d2, followed by addition of 12.5 μl of diluted Anti-cAMP-Eu-Cryptate, and the plate was incubated at room temperature in the dark for 1 hour. The HTRF signal values were read by the PHERAstar multi-function microplate reader.

[2] = target: T2, adenosine A2a receptor (A2aR) (Homo sapiens, UniProt P29274); assay: Inhibition of the adenosine A2a receptor cAMP signaling pathway in CHO-K1/A2aR cells (HTRF); type: cell-based; details: for IC50: CHO-K1/A2aR cells, cAMP, Table 1
T2 construct: expressed in transfected cells; host or cells: CHO-K1
T2 sequence (P29274 whole entry): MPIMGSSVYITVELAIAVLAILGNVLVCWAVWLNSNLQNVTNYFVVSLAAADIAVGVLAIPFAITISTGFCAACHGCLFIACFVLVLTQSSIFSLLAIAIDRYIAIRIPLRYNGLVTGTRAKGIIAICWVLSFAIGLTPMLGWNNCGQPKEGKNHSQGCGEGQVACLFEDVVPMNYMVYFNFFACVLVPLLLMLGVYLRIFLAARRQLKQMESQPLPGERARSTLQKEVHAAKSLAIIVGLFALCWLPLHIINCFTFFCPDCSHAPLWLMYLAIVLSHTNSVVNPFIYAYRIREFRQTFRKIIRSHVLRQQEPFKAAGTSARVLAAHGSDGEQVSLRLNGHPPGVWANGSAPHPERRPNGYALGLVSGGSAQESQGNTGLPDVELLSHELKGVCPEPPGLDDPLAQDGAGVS
From the text: as §1, §2
2.1 Adenosine A2a receptor
CHO-K1/A2aR cells were cultured in DMEM/F12 medium containing 10% fetal bovine serum and 800 μg/ml bleomycin. The cells were digested with the cell separation buffer during the experiment. The cells were resuspended in the balanced salt buffer containing 20 mM HEPES and 0.1% bovine serum albumin and counted, and the cell density was adjusted to 10^6 cells/ml. In the 384-well plate, each well was added with 5 μl of cell suspension, and 2.5 μl of test compound (4× concentration) formulated with the balanced salt buffer containing 20 mM HEPES, 0.1% bovine serum albumin, 54 μM rolipram and 2.7 U/ml adenosine deaminase, and the plate was incubated at room temperature for 30 minutes. Each well was then added with 2.5 μl of […] (4× concentration) formulated with the balanced salt buffer containing 20 mM HEPES, 0.1% bovine serum albumin, 54 μM rolipram and 2.7 U/ml adenosine deaminase, and the plate was incubated at room temperature for 30 minutes. The final concentrations of the compounds were: 10000, 2000, 400, 80, 16, 3.2, 0.64, 0.128, 0.0256, 0.00512, and 0.001024 nM. The final concentration of […] was 20 nM. Intracellular cAMP concentration was detected with the cAMP dynamic 2 kit. cAMP-d2 and Anti-cAMP-Eu-Cryptate were diluted respectively with the cAMP lysis buffer at a ratio of 1:4. Each well was added with 5 μl of diluted cAMP-d2, followed by addition of 5 μl of diluted Anti-cAMP-Eu-Cryptate, and the plate was incubated at room temperature in the dark for 1 hour. The HTRF signal values were read by the PHERAstar multi-function microplate reader.

CCc1ccnc2ccc(-c3nnc(N)nc3-c3ccc(F)cc3)cc12 [Example 44, 6-(4-Ethylquinolin-6-yl)-5-(4-fluorophenyl)-1,2,4-triazin-3-amine]
IC50 [1]: > 10000 nM | IC50 ratio (A3R/A2aR) [1]: >10^4 | IC50 ([2]; NECA 20 nM): 0.8 nM

[2H]C([2H])([2H])c1ncnc2ccc(-c3nnc(N)nc3-c3ccc(F)cc3)cc12 [Example 52, 5-(4-Fluorophenyl)-6-(4-(methyl-d3)quinazolin-6-yl)-1,2,4-triazin-3-amine]
IC50 [1]: > 10000 nM | IC50 ratio (A3R/A2aR) [1]: >10^4 | IC50 ([2]; 20 nM): 0.9 nM

Cc1ncnc2ccc(-c3nnc(N)nc3-c3ccccc3)cc12 [Example 15, 6-(4-Methylquinazolin-6-yl)-5-phenyl-1,2,4-triazin-3-amine]
IC50 [1]: > 10000 nM | IC50 ratio (A3R/A2aR) [1]: >10^4 | IC50 ([2]; NECA 20 nM): 0.1 nM

Cc1ccnc2ccc(-c3nnc(N)nc3-c3ccccc3F)cc12 [Example 17, 5-(2-Fluorophenyl)-6-(4-methylquinolin-6-yl)-1,2,4-triazin-3-amine]
IC50 [1]: > 10000 nM | IC50 ratio (A3R/A2aR) [1]: >10^4 | IC50 ([2]; NECA 20 nM): 0.5 nM

Cc1ncnc2ccc(-c3nnc(N)nc3-c3ccc(F)cc3)cc12 [Example 19, 5-(4-Fluorophenyl)-6-(4-methylquinazolin-6-yl)-1,2,4-triazin-3-amine]
IC50 [1]: > 10000 nM | IC50 ratio (A3R/A2aR) [1]: >10^4 | IC50 ([2]; 20 nM): 0.4 nM

Cc1ccnc2c(F)cc(-c3nnc(N)nc3-c3ccccc3)cc12 [Example 16, 6-(8-Fluoro-4-methylquinolin-6-yl)-5-phenyl-1,2,4-triazin-3-amine]
IC50 [1]: > 10000 nM | IC50 ratio (A3R/A2aR) [1]: >10^4 | IC50 ([2]; NECA 20 nM): 0.2 nM

Cc1ccnc2ccc(-c3nnc(N)nc3-c3ccc(F)cc3)cc12 [Example 18, 5-(4-Fluorophenyl)-6-(4-methylquinolin-6-yl)-1,2,4-triazin-3-amine]
IC50 [1]: > 10000 nM | IC50 ratio (A3R/A2aR) [1]: >10^4 | IC50 ([2]; NECA 20 nM): 0.2 nM

Nc1nnc(-c2cc(F)c3ncccc3c2)c(-c2ccccc2)n1 [Example 2, 6-(8-Fluoroquinolin-6-yl)-5-phenyl-1,2,4-triazin-3-amine]
IC50 [1]: > 10000 nM | IC50 ratio (A3R/A2aR) [1]: >10^4 | IC50 ([2]; NECA 20 nM): 0.6 nM

Nc1nnc(-c2ccc3ncccc3c2)c(-c2ccccc2)n1 [Example 3, 5-Phenyl-6-(quinolin-6-yl)-1,2,4-triazin-3-amine]
IC50 [1]: > 10000 nM | IC50 ratio (A3R/A2aR) [1]: >10^4 | IC50 ([2]; NECA 20 nM): 0.7 nM | difference in inhibition activity on the adenosine A2a receptor versus Comparative Example 1 ([2]; compared with Comparative Example 1): 225 times

Cc1ccnc2c(F)cc(-c3nnc(N)nc3-c3ccc(F)cc3)cc12 [Example 20, 6-(8-Fluoro-4-methylquinolin-6-yl)-5-(4-fluorophenyl)-1,2,4-triazin-3-amine]
IC50 [1]: > 10000 nM | IC50 ratio (A3R/A2aR) [1]: >10^3 | IC50 ([2]; NECA 20 nM): 1.5 nM

Cc1ncnc2c(F)cc(-c3nnc(N)nc3-c3ccccc3)cc12 [Example 45, 6-(8-Fluoro-4-methylquinazolin-6-yl)-5-phenyl-1,2,4-triazin-3-amine]
IC50 [1]: > 10000 nM | IC50 ratio (A3R/A2aR) [1]: >10^3 | IC50 ([2]; NECA 20 nM): 1.2 nM

Cc1ccnc2c(F)cc(-c3nnc(N)nc3-c3ccccc3F)cc12 [Example 31, 6-(8-Fluoro-4-methylquinolin-6-yl)-5-(2-fluorophenyl)-1,2,4-triazin-3-amine]
IC50 [1]: > 10000 nM | IC50 ratio (A3R/A2aR) [1]: >10^3 | IC50 ([2]; NECA 20 nM): 3.8 nM

[2H]C([2H])([2H])c1ccnc2ccc(-c3nnc(N)nc3-c3ccc(F)cc3)cc12 [Example 22, 5-(4-Fluorophenyl)-6-[4-(trideuteromethyl)-6-quinolinyl]-1,2,4-triazin-3-amine]
IC50 [1]: > 10000 nM | IC50 ratio (A3R/A2aR) [1]: >10^4 | IC50 ([2]; NECA 20 nM): 0.3 nM

Source: US11014904B2, “1,2,4-triazine-3-amine derivative, preparation method therefor, and use thereof in medicine” (Jiangsu Hengrui Medicine Co., Ltd., priority 2017, dated 2021)
